The test system of one assay is Bacillus subtilis. Kind of assay: Antibacterial activity against Bacillus subtilis at 15 ug/disk. The assay is classed as functional. The note with it: read-out: IZ.
In a further assay the test system is P388. Kind of assay: Cytotoxicity against mouse P388 cells. The assay is classed as functional, cell-based.
A further assay deals with HeLa. The assay can be described thus: Cytotoxicity against human HeLa cells. The assay is classed as functional, cell-based.
Assay [1] has as its system Trichophyton mentagrophytes. Kind of assay: Antifungal activity against Trichophyton mentagrophytes at 30 ug/disk. The assay is classed as functional. The conditions noted are these: read-out: IZ.
A further assay concerns Amorphotheca resinae. The assay can be described thus: Antifungal activity against Cladosporium resinae at 15 ug/disk. In kind it is functional. The conditions noted are these: read-out: IZ.

Structures are written as SMILES. In brackets after ≈: the same amount, converted by molar mass.

What is called IC50 is the concentration needed to halve the response being measured. Read a low IC50 as inhibition by little substance.

For the molecule `CC1=C(C)[C@H]2[C@H](Cc3c[nH]c4ccccc34)NC(=O)[C@]23C(=O)/C=C/C(=O)[C@H](O)/C(C)=C/[C@@H](C)C/C=C/[C@H]3[C@@H]1O` [CHEATOGLOBOSIN B], the zone of inhibition at 15 µg/disc in the assay with Bacillus subtilis came out at 1 mm. The figures for the IC50 in the assay with P388 and in the assay on HeLa were 3.45 mg/L (≈ 6.53 µM) and 3.2 mg/L (≈ 6.05 µM), respectively.
For `C=C1[C@@H](C)[C@H]2[C@H](Cc3c[nH]c4ccccc34)NC(=O)[C@]23C(=O)/C=C/C(=O)[C@H](O)/C(C)=C/[C@@H](C)C/C=C/[C@H]3[C@@H]1O` [CHEATOGLOBOSIN D] the same measures were 3 mm, 4.92 mg/L (≈ 9.31 µM) and 3.2 mg/L (≈ 6.05 µM).
In the assay on P388, `C/C1=C\[C@@H](C)C/C=C/[C@H]2[C@H](O)[C@](C)(O)[C@@H](C)[C@H]3[C@H](Cc4c[nH]c5ccccc45)NC(=O)[C@]32C(=O)/C=C/C(=O)[C@@H]1O` [CHAETOGLOBOSIN Q] gave an IC50 of 2.19 mg/L (≈ 4.01 µM).
As for `CC1=C(C)[C@H]2[C@H](Cc3c[nH]c4ccccc34)NC(=O)[C@]23C(=O)CCC(=O)C(=O)/C(C)=C/[C@@H](C)C/C=C/[C@H]3[C@@H]1O` [CHEATOGLOBOSIN G], in the assay with HeLa, half-maximal inhibition (IC50) was put at 3.2 mg/L (≈ 6.05 µM).
Still for that read-out and setting: with `CC1=C(C)[C@H]2[C@H](Cc3c[nH]c4ccccc34)NC(=O)[C@]23C(=O)CC[C@H](O)C(=O)/C(C)=C/[C@@H](C)C/C=C/[C@H]3[C@@H]1O` [CHAETOGLOBOSIN E] the figure was 3.2 mg/L (≈ 6.03 µM).
In the case of `CC1=C[C@@H]2/C=C/C[C@H](C)/C=C(\C)[C@@H](O)C/C=C/C(=O)[C@]23C(=O)N[C@@H](Cc2c[nH]c4ccccc24)[C@@H]3[C@@H]1C` [CHEATOGLOBOSIN T], in the assay on P388, the half-maximal inhibitory concentration (IC50) turned out to be 1.58 mg/L (≈ 3.17 µM).
For the molecule `CC1=C[C@@H]2/C=C/C[C@H](C)/C=C(\C)CC/C=C/C(=O)[C@]23C(=O)N[C@@H](Cc2c[nH]c4ccccc24)[C@@H]3[C@@H]1C` [PROCHEATOGLOBOSIN I], the IC50 with P388 stood at 3.99 mg/L (≈ 8.27 µM). Also, in assay [1], the zone of inhibition at 30 µg/disc was 2 mm.
Consider `CC1=C[C@@H]2/C=C/C[C@H](C)/C=C(\C)[C@@H](O)C(=O)/C=C/C(=O)[C@]23C(=O)N[C@@H](Cc2c[nH]c4ccccc24)[C@@H]3[C@@H]1C` [CHEATOGLOBOSIN J], for which the zone of inhibition at 15 µg/disc with Bacillus subtilis is 2 mm. Moreover, the concentration for half-maximal inhibition (IC50) in the assay with P388 is 2.47 mg/L (≈ 4.82 µM); in the assay with HeLa, 3.2 mg/L (≈ 6.24 µM).
As to `C/C1=C\[C@@H](C)C/C=C/[C@H]2[C@@H]3O[C@]3(C)[C@@H](C)[C@H]3[C@H](Cc4c[nH]c5ccccc45)NC(=O)[C@]32C(=O)/C=C/C(=O)[C@@H]1O` [CHAETOGLOBOSIN A], the values for the zone of inhibition at 15 µg/disc in the assay on Bacillus subtilis and with Amorphotheca resinae were 3 mm and 5 mm, respectively. The half-maximal inhibitory concentration (IC50) stood at 1.94 mg/L (≈ 3.67 µM) in the assay with P388 and 3.2 mg/L (≈ 6.05 µM) with HeLa.
Molecule `CC1=C[C@@H]2/C=C/C[C@H](C)/C=C(\C)CC(=O)/C=C/C(=O)[C@]23C(=O)N[C@@H](Cc2c[nH]c4ccccc24)[C@@H]3[C@@H]1C` [PROCHEATOGLOBOSIN II] displayed an IC50 with P388 of 3.99 mg/L (≈ 8.03 µM). In addition, the zone of inhibition at 30 µg/disc in assay [1] came to 2 mm.
As for `C/C1=C\[C@@H](C)C/C=C/[C@H]2[C@@H]3O[C@]3(C)[C@@H](C)[C@H]3[C@H](Cc4c[nH]c5ccccc45)NC(=O)[C@]32C(=O)CCC(=O)C1=O` [CHAETOGLOBOSIN C], the midpoint of inhibition in the assay with HeLa, the IC50, lay at 3.2 mg/L (≈ 6.05 µM).
`C/C1=C\[C@@H](C)C/C=C/[C@H]2[C@@H]3O[C@]3(C)[C@@H](C)[C@H]3[C@H](Cc4c[nH]c5ccccc45)NC(=O)[C@]32C(=O)CC[C@H](O)C1=O` [CHAETOGLOBOSIN F] gave a 50% inhibitory concentration (IC50) in the assay on HeLa of 3.2 mg/L (≈ 6.03 µM).

For the origin of these results see ChEMBL document CHEMBL1148925, “Chaetoglobosins Q, R, and T, three further new metabolites from Chaetomium globosum” (J Nat Prod, 2004).
